Laboratory results: patent publication US20160303122A1, “TREATMENT OF HEPATITIS B VIRAL” (Southern Research Institute, priority 2015, published 2016)
pEC50: −log10 of the molar value. Where two headings read alike, the source gives them in different places.

How the values were obtained:
[1] = Cell Titer 96 (Toxicity) in the secondary assay; assay type: cell-based; details: human, HepG2 2.2.15 cells (confluent cultures), unit from conc. ranges in the 1st table, read-out: CC50 - compound concentration that reduces cell viability by 50%
Hepatitis B virus [2] = experiment: Primary anti-Hepatitis B virus assay (primary screen); assay type: cell-based; details: data confirmed in the secondary assay
Protocol: (§1) Hepatitis B antiviral assays (Korba & Gerin, 1992, Antivir. Res. 19:55) are conducted using confluent cultures of 2.2.15 cells (genotype ayw; parental cell HepG2) maintained on 96-well flat-bottomed tissue culture plates (confluence in this culture system is required for active, high levels of Hepatitis B replication equivalent to that observed in chronically-infected individuals (Sells, et al., 1988, J. Virol. 62:2836; Korba and Gerin, 1992, Antivir. Res. 19:55). Cultures are treated for 7 days. Typically, 4 doses (10-fold or 3-fold steps), in triplicate are used. Hepatitis B DNA levels in the culture medium (representing Hepatitis B virion production) are assessed by quantitative blot hybridization 24 hrs. after the last treatment. Cytotoxicity is assessed by uptake of neutral red dye 24 hr. following the last treatment. Lamivudine (LMV) is used as the standard assay control, but other control compounds are also available.
EC50, EC90 and CC50 values are calculated by linear regression analysis (MS EXCEL®, QuattroPro®) using data combined from all treated cultures (Korba & Gerin, 1992, Antivir. Res. 19:55; Okuse, et al., 2005, Antivir. Res. 65:23). Standard deviations for EC50 and EC90 values are calculated from the standard errors generated by the regression analyses. […]

Hepatitis B virus [3] = experiment: Secondary anti-Hepatitis B virus assay, quantitative polymerase chain reaction (intracellular DNA); assay type: cell-based, Hepatitis B virus (Hepatitis B-adr); details: for Sl50 - CC50/EC50 / Sl90 - CC50/EC90: selectivity index; for pEC50 / EC90: Hepatitis B-adr, intracellular DNA by qPCR, vehicle DMSO, unit from conc. ranges in the 1st table; for pEC50: read-out: EC50 - compound concentration that reduces viral replication by 50%; for EC90: read-out: EC90 - compound concentration that reduces viral replication by 90%
Protocol: as §1
EC50, EC90 and CC50 values are calculated by linear regression analysis (MS EXCEL®, QuattroPro®) using data combined from all treated cultures (Korba & Gerin, 1992, Antivir. Res. 19:55; Okuse, et al., 2005, Antivir. Res. 65:23). Standard deviations for EC50 and EC90 values are calculated from the standard errors generated by the regression analyses. EC50 and EC90 are drug concentrations at which a 2-fold, or a 10-fold depression of Hepatitis B DNA (relative to the average levels in untreated cultures), respectively, is observed. CC50 is the drug concentration at which a 2-fold lower level of neutral red dye uptake (relative to the average levels in untreated cultures) is observed. The Selectivity index (S.I.) is calculated as CC50/EC90 since at least a 3-fold depression of Hepatitis B DNA levels is typically required to achieve statistical significance in this assay system (Korba & Gerin, 1992, Antivir. Res. 19:55).
Confluent cultures of HepG2 2.2.15 cells maintained on 48-well flat-bottomed tissue culture plates are treated as described for the primary assay. Hepatitis B virion DNA levels in the culture medium and cytotoxicity are assessed as described for the primary assay. […] Res. 19:55). EC50, EC90, and S.I. values are calculated for both virion DNA and intracellular Hepatitis B DNA replication intermediates.

HepG2 2.2.15 = experiment: Cell Titer 96 (Toxicity) in the secondary assay; assay type: cell-based; details: HepG2 2.2.15 cells, unit from conc. ranges in the 1st table, read-out: CC50 - compound concentration that reduces cell viability by 50%
[4] = Hepatitis B virus, HepG2 2.2.15, HepG2 2.2.15 cells
[5] = HepG2 2.2.15 cells, listed as 3TC (1)
[6] = HepG2 2.2.15 cells, listed as 3TC (2)
[7] = HepG2 2.2.15 cells, listed as 3TC (3)

SMILES	CC50 at 7 days [1]	activity in the primary screen (Hepatitis B virus [2])	Sl50 - CC50/EC50 (Hepatitis B virus [3]; HepG2 2.2.15 cells)	Sl90 - CC50/EC90 (Hepatitis B virus [3]; HepG2 2.2.15 cells)	pEC50 (Hepatitis B virus [3]; [4])	EC90 (Hepatitis B virus [3]; [4])	CC50 (HepG2 2.2.15; listed as 3TC (1))	CC50 (HepG2 2.2.15; listed as 3TC (2))	CC50 (HepG2 2.2.15; listed as 3TC (3))	pEC50 (Hepatitis B virus [3]; [5])	EC90 (Hepatitis B virus [3]; [5])	EC90 (Hepatitis B virus [3]; [6])	pEC50 (Hepatitis B virus [3]; [7])	EC90 (Hepatitis B virus [3]; [7])	Sl50 - CC50/EC50 (Hepatitis B virus [3]; [5])	Sl50 - CC50/EC50 (Hepatitis B virus [3]; [6])	Sl50 - CC50/EC50 (Hepatitis B virus [3]; [7])
CCC[C@H](Nc1nc(-c2ccc(NC(=O)NCC)c(OC)c2)ncc1C)c1cccnc1 (stereo in doubt) [Compound 1A, 1-ethyl-3-(2-methoxy-4-(5-methyl-4-((1-(pyridine-3-yl)butyl)amino)pyrimidin-2-yl)phenyl)urea]	25.4 µM	active	>80	1	> 6.49	0.71 µM	–	–	–	–	–	–	–	–	–	–	–
Nc1ccn([C@@H]2CS[C@H](CO)O2)c(=O)n1 [Compound 3TC, 2′,3′-dideoxy-3′-thiacytidine]	–	–	–	1	7.22	–	> 0.5 µM	> 1 µM	> 2 µM	7.40	> 0.5 µM	> 1 µM	7.30	> 2 µM	>12	>15	>43
